Columns and labels:
R580A-TG2 = molecular target: T1, R580A-TG2 (Homo sapiens, UniProt P21980, R580A); assay: In situ transamidating assay, SH-SY5Y cells stably overexpressing R580A-TG2; type: cell-based; settings: 10 μM, 16-20 h, no calcium stimulation
T1 construct: expressed in transfected cells
T1 sequence (P21980 1-687 R580A): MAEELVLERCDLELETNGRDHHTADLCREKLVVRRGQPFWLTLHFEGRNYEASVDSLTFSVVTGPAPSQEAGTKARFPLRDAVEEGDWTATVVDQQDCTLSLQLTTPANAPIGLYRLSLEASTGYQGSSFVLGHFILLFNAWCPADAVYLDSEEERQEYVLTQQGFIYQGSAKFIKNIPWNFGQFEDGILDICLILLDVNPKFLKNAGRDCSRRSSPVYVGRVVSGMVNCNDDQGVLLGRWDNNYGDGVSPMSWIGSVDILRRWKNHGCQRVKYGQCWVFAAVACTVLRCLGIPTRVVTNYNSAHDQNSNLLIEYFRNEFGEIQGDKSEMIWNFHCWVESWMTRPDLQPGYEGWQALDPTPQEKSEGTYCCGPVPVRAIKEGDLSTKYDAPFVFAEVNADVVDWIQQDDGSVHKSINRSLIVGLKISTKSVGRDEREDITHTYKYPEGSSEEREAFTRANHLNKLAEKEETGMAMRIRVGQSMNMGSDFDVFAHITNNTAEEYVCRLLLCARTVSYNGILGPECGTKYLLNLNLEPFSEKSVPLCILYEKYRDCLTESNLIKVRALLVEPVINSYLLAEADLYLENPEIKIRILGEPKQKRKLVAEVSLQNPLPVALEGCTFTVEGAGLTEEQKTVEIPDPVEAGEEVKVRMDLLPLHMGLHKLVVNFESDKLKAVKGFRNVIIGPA
Method: These inhibitors were then tested in cell culture models for their efficiency in inhibiting in situ transamidating activity. […] For these studies we used SH-SY5Y neuroblastoma cells stably overexpressing R580A-TG2.
In situ transglutaminase assay. In situ transamidating activity measurement was conducted as described previously (Gundemir, S. and Johnson, G. V., PLoS ONE 4(7):e6123, 2009) with slight modifications. Briefly, 24 h after transfection of HEK 293A cells, normal growth media was changed to fresh growth media with 5% FBS containing given amount of ionomycin (0-1.5 μM) and 0.1 mM 5-(biotinamido)pentylamine (BAP) (Pierce). 3 h later, cells were collected in media, pelleted, washed once with PBS and resuspended in homogenization buffer (50 mM Tris-Cl, pH: 7.5, 150 mM NaCl, 1 mM EDTA), sonicated on ice. In a high protein binding 96-well plate (Falcon), 10 μg of protein was loaded in a total of 50 μL homogenization buffer and the plate was incubated at 4° C. overnight. The next day, 200 μL of blocking buffer (5% BSA, 0.01% Tween 20 in borate saline [100 mM boric acid, 20 mM Na-borate and 0.76 mM NaCl]) was added to each sample and the plate was incubated at 37° C. for 1 h. Each well was then rinsed 3 times with rinsing buffer (1% BSA, 0.01% Tween 20 in borate saline) and incubated with 1 μg/μL Horseradish peroxidase conjugated neutravidin (Pierce) in a total of 100 μL rinsing buffer at room temperature for 1 h. The samples were washed 4 times with rinsing buffer, and peroxidase reaction was conducted in the dark in 200 μL of OPD buffer (50 mL of 0.1 M Na2HPO4, 50 mM citric acid, 1 tablet o-phenylenediamine (Sigma Aldrich), 0.0006% H2O2). After 20 minutes, the reaction was stopped by addition of 50 μL of 1 M sulfuric acid and read at 493 nm wavelength.

[1] = tested on: SCC-13, HaCaT, A431, TU159, HNSCC3 cells; assay: Spheroid formation, matrigel invasion and migration assays in five cell lines (Example 11); type: cell-based, human; settings: FIGS. 38-42
Method: SCC13 cells were grown for one week as monolayer in spheroid media; cells were harvested with 0.25% trypsin and plated with 2 mL of spheroid media at 15,000 cells per well in a 6-well dish. Cells were counted on day 0 and then treated with the indicated concentration of the indicated compound. Control was 0.1% DMSO. Cells were counted using a cell counter, 2 wells per treatment on each day. Values shown are mean±SEM, n=1.
(§1) HaCaT cells were grown for one week as a monolayer in spheroid media. Cells were harvested with 0.25% trypsin and plated with 2 mL of spheroid media at 15,000 cells per well in a 6-well dish. Cells were counted on day 0 and then treated with the indicated concentration of the indicated compound. Control was 0.1% DMSO. Cells were counted using a cell counter, 2 wells per treatment on each day. Values shown are mean±SEM, n=1.
as §1, with “A431” for “HaCaT”
TU159 cells were harvested with 0.25% trypsin and plated with 2 mL of spheroid media at 40,000 cells per well in a 6 well low-attachment plate. The cells were grown as spheroids for 8 days. On day 8 the spheroids were treated with the indicated concentration of the indicated compound. Control was 0.1% DMSO. The same 2 wells per treatment were counted on each day. Values shown are mean±SEM, n=1.
as §1, with “HNSCC3” for “HaCaT”, “The same” for “Cells were counted using a cell counter,”, “treatment were counted” for “treatment”, “n=1. […]” for “n=1.”

Row | SMILES | resting (basal) transamidating activity of R580A-TG2 (R580A-TG2) | spheroid formation, matrigel invasion and migration [1]
1 | C=CC(=O)NCCCC[C@H](NC(=O)OCc1ccccc1)C(=O)N1CCN(C(=O)c2cc3ccc(O)cc3oc2=O)CC1 [VA5, (S)-Benzyl(6-acrylamido-1-(4-(7-hydroxy-2-oxo-2H-chromene-3-carbonyl)piperazin-1-yl)-1-oxohexan-2-yl)carbamate] | inhibit resting transamidating activity of R580A-TG2 | inhibit spheroid formation, matrigel invasion and migration
2 | C=CC(=O)NCCCC[C@H](NC(=O)OCc1ccccc1)C(=O)NCCOCCOCCNS(=O)(=O)c1cccc2c(N(C)C)cccc12 [NC9] | inhibit resting transamidating activity of R580A-TG2 | inhibit spheroid formation, matrigel invasion and migration
3 | C=CC(=O)NCCCC[C@H](NC(=O)OCc1ccccc1)C(=O)N1CCN(S(=O)(=O)c2cccc3c(N(C)C)cccc23)CC1 [VA4, (S)-benzyl(6-acrylamido-1-(4-((5-(dimethylamino)naphthalen-1-yl)sulfonyl)piperazin-1-yl)-1-oxohexan-2-yl)carbamate] | inhibit resting transamidating activity of R580A-TG2 | inhibit spheroid formation, matrigel invasion and migration
